Experimental data from US20090280196A1, “CISSUS […] PLANT EXTRACTS FOR TREATING OSTEOPOROSIS AND THE EXTRACTION PROCESS THEREOF” (priority 2006, published 2009).

How the values were obtained:
[1] = system: osteoclasts (osteoclastic bone resorption); assay: Bone resorption hit screening, CTX release from osteoclasts on bovine bone slices; assay type: cell-based, human; settings: positive control, V-ATPase blocker, concentration not given
Excerpt: Studies have determined that osteoclasts are largely derived from CD14 positive monocytes (J. Haemotol, 1999 July; 106(1):167-70). Clonal analysis of haematopoietic cells by surface phenotypes has been used to further identify osteoclast precursor by characterizing osteoclast like cells distinct from other haematopoietic progenitors (Lee et. al; 1992b Muguruma & Lee; 1988). Surface phenotype analysis has shown that human osteoclasts are derived from CD14 monocytes (Massey & Flanagan, 1999). CD 14 marker is strongly expressed on monocytes, the putative osteoclast precursor in peripheral blood and CD14 positive monocytes have been selected for osteoclastogenesis. (Clin. Sci (Lond) 2000, August, 99(2): 133-40).
The osteoclasts were isolated as CD14 positive monocytes and differentiated into osteoclasts for 10-12 days. Hereafter, the osteoclasts were lifted by trypsin, counted and seeded on bovine bone slices at a density of 40000 cells per bone slice. The osteoclasts were seeded on the bone slices for one day before the plant extracts were added. The osteoclasts were hereby allowed to attach and initiate resorption. […]
The bone resorption experiment was ended after 5 days of incubation and the cell viability was measured by the use of the AlamarBlue assay. Bone resorption was evaluated as the determination of the CTX release.

[2] = cited from earlier work

| Structure (SMILES) | inhibition of osteoclastic bone resorption compared to DMSO [1] | increase of bone mineral density in the spine ([2]; in 18 months, once daily subcutaneous injection) | reduction of the risk of fracture ([2]; patients) |
| --- | --- | --- | --- |
| CO/C1=C\C(C)=C\[C@@H](C)[C@@H](O)[C@@H](C)C/C(C)=C/C=C/[C@H](OC)[C@@H]([C@@H](C)[C@@H](O)[C@H](C)[C@@]2(O)C[C@@H](O)[C@H](C)[C@@H](C(C)C)O2)OC1=O [Bafilomycin] | approximately 80% | – | – |
| CC[C@H](C)[C@H](NC(=O)[C@H](CCC(=O)O)NC(=O)[C@H](CO)NC(=O)[C@@H](NC(=O)[C@@H](N)CO)C(C)C)C(=O)N[C@@H](CCC(N)=O)C(=O)N[C@@H](CC(C)C)C(=O)N[C@@H](CCSC)C(=O)N[C@@H](Cc1cnc[nH]1)C(=O)N[C@@H](CC(N)=O)C(=O)N[C@@H](CC(C)C)C(=O)NCC(=O)N[C@@H](CCCCN)C(=O)N[C@@H](Cc1cnc[nH]1)C(=O)N[C@@H](CC(C)C)C(=O)N[C@@H](CC(N)=O)C(=O)N[C@@H](CO)C(=O)N[C@@H](CCSC)C(=O)N[C@@H](CCC(=O)O)C(=O)N[C@@H](CCCN=C(N)N)C(=O)N[C@H](C(=O)N[C@@H](CCC(=O)O)C(=O)N[C@@H](Cc1c[nH]c2ccccc12)C(=O)N[C@@H](CC(C)C)C(=O)N[C@@H](CCCN=C(N)N)C(=O)N[C@@H](CCCCN)C(=O)N[C@@H](CCCCN)C(=O)N[C@@H](CC(C)C)C(=O)N[C@@H](CCC(N)=O)C(=O)N[C@@H](CC(=O)O)C(=O)N[C@H](C(=O)N[C@@H](Cc1cnc[nH]1)C(=O)N[C@@H](CC(N)=O)C(=O)N[C@@H](Cc1ccccc1)C(=O)O)C(C)C)C(C)C [teriparatide] | – | ≤ 13% | ≤ 90% |
